Measurements: PubChem BioAssay (NCI)
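Cells were grown in 96-well plates and exposed to each compound for 48 hours at five concentrations; endpoints were interpolated linearly between bracketing concentrations, or set to the highest concentration if not reached. Here, GI50 denotes the concentration required for 50% inhibition of growth. TGI marks complete inhibition of growth.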

Tests used:
Assay in all cases: NCI anticancer screen, dose series, 48 h
SN12C renal = test system: SN12C renal
MOLT-4 leukemia = test system: MOLT-4 leukemia
HCT-15 colon = test system: HCT-15 colon
COLO 205 colon = test system: COLO 205 colon
MDA-MB-435 = test system: MDA-MB-435
HT29 colon = test system: HT29 colon
MALME-3M melanoma = test system: MALME-3M melanoma
RXF 393 renal = test system: RXF 393 renal
HCC-2998 colon = test system: HCC-2998 colon
OVCAR-3 ovarian = test system: OVCAR-3 ovarian

SMILES	GI50 (SN12C renal)	TGI (SN12C renal)	GI50 (MOLT-4 leukemia)	TGI (MOLT-4 leukemia)	GI50 (HCT-15 colon)	TGI (HCT-15 colon)	GI50 (COLO 205 colon)	TGI (COLO 205 colon)	GI50 (MDA-MB-435)	TGI (MDA-MB-435)	GI50 (HT29 colon)	TGI (HT29 colon)	GI50 (MALME-3M melanoma)	TGI (MALME-3M melanoma)	GI50 (RXF 393 renal)	TGI (RXF 393 renal)	GI50 (HCC-2998 colon)	TGI (HCC-2998 colon)	GI50 (OVCAR-3 ovarian)	TGI (OVCAR-3 ovarian)
CC(C)(C)CC(C)(C)NCc1cc(C(C)(C)C)cc(CNC(C)(C)CC(C)(C)C)c1O	2.74 µM	11.9 µM	2.93 µM	9.34 µM	3.22 µM	12.5 µM	1.41 µM	2.8 µM	2.56 µM	10.9 µM	2.4 µM	9.7 µM	1.85 µM	4 µM	1.92 µM	5.85 µM	2.58 µM	8.07 µM	2.59 µM	7 µM
Cc1cn2c(/C=N/N=C(N)N)c(-c3cccs3)nc2s1	0.161 µM	3.08 µM	2.37 µM	4.65 µM	4.3 µM	18.4 µM	8.16 µM	69.4 µM	4.96 µM	18.5 µM	2.1 µM	7.14 µM	–	–	10.2 µM	46.2 µM	1.77 µM	3.24 µM	1.91 µM	5.5 µM
CCOC(=O)CC1C(COC(=O)NC)OC(n2cnc3c(NC(=O)Nc4ccccc4)ncnc32)C1O[Si](C)(C)C(C)(C)C (centres undefined)	2.17 µM	5.19 µM	1.99 µM	5.74 µM	11.7 µM	> 100 µM	7.7 µM	20.2 µM	3.26 µM	> 100 µM	3.97 µM	17.7 µM	3.34 µM	33.1 µM	2.94 µM	12.4 µM	8.76 µM	28.8 µM	2.42 µM	5.6 µM
CCCC(CCC)C(=O)OCC1(CO)C/C(=C\c2ccc(F)cc2)C(=O)O1 (centres undefined)	12.4 µM	26.4 µM	3.54 µM	21.4 µM	12.5 µM	26.2 µM	0.545 µM	8.74 µM	2.43 µM	20.9 µM	13.6 µM	27.3 µM	12.1 µM	27.2 µM	15.6 µM	36.6 µM	6.73 µM	19.8 µM	17.1 µM	31.2 µM
COc1cc(-c2nc(-c3nc4ccccc4[nH]3)cc3c2[nH]c2ccccc23)cc(OC)c1OC	6.27 µM	> 100 µM	3.93 µM	> 100 µM	4.14 µM	> 100 µM	4.58 µM	> 100 µM	3.65 µM	> 100 µM	6.87 µM	> 100 µM	4.31 µM	> 100 µM	3.25 µM	> 100 µM	7.32 µM	> 100 µM	6.2 µM	> 100 µM
Cc1cc(N2CCSCC2)nc(NC2CCCC(Nc3ccnc4cc(Cl)ccc34)C2)n1 (centres undefined)	1.9 µM	4.37 µM	1.55 µM	5.34 µM	1.24 µM	2.77 µM	–	–	1.68 µM	3.09 µM	1.61 µM	3.98 µM	1.8 µM	3.43 µM	1.41 µM	2.93 µM	1.81 µM	3.63 µM	1.84 µM	3.72 µM
N#CCN/C=C\C(=O)c1ccc(Cl)cc1	39.3 µM	> 100 µM	21.3 µM	> 100 µM	–	–	32.7 µM	> 100 µM	30.3 µM	> 100 µM	–	–	17.9 µM	53.6 µM	40.8 µM	> 100 µM	–	–	17.7 µM	59.1 µM
COc1ccc2nc3cc([N+](=O)[O-])ccc3c(NCCCN(C)C)c2c1	0.111 µM	0.768 µM	0.0432 µM	0.68 µM	3.46 µM	–	0.221 µM	2.17 µM	0.247 µM	1 µM	0.0397 µM	1.12 µM	0.287 µM	0.878 µM	–	–	–	–	0.594 µM	7.86 µM
CNC(=O)Cc1nc(-c2cccc(NS(=O)(=O)c3c(F)cccc3F)c2F)c(-c2ccnc(Nc3ccccc3)n2)s1	1.71 µM	> 50 µM	12.5 µM	> 50 µM	7.37 µM	> 50 µM	0.0188 µM	> 30.2 µM	0.0445 µM	> 44 µM	0.0327 µM	> 50 µM	–	–	0.181 µM	2.84 µM	7.94 µM	28.1 µM	12.9 µM	> 50 µM
N#CC1=C(N)NC(N2CCOCC2)=NC12Nc1ccccc1N2	30.1 µM	> 100 µM	62.5 µM	> 100 µM	35.2 µM	> 100 µM	24.1 µM	> 100 µM	31 µM	> 100 µM	32.6 µM	> 100 µM	30.5 µM	> 100 µM	14.2 µM	40.7 µM	–	–	20.2 µM	70.7 µM
COc1ccc(/C=N\Nc2ccc([N+](=O)[O-])cn2)cc1OC	> 100 µM	> 100 µM	> 100 µM	> 100 µM	> 100 µM	> 100 µM	–	–	> 100 µM	> 100 µM	> 100 µM	> 100 µM	> 100 µM	> 100 µM	3.65 µM	16.7 µM	> 100 µM	> 100 µM	–	–
Cc1cc(C)c(Cn2cnc3c(Cl)ncnc32)c(C)c1CCl	> 100 µM	> 100 µM	23.3 µM	63.4 µM	0.343 µM	18.8 µM	79.1 µM	> 100 µM	> 100 µM	> 100 µM	25.8 µM	> 100 µM	–	–	> 100 µM	> 100 µM	19 µM	46.7 µM	18.1 µM	53.9 µM
SCCSCCCSCCS	–	> 100 µM	–	31.2 µM	–	> 100 µM	–	> 100 µM	–	> 100 µM	–	> 100 µM	–	–	–	–	–	> 100 µM	–	> 100 µM
CC1(C)C2CC(=O)C1(C)C(OCc1ccccc1)C2 (centres undefined)	–	> 100 µM	–	46.6 µM	–	> 100 µM	–	90.6 µM	–	> 100 µM	–	> 100 µM	–	> 100 µM	–	–	–	> 100 µM	–	> 100 µM
CCC(CNc1cc(OC)cc2cccnc12)NC1CCCCC1 (centres undefined)	> 100 µM	> 100 µM	36 µM	> 100 µM	34.9 µM	> 100 µM	11.3 µM	24.6 µM	32.6 µM	> 100 µM	–	–	17.2 µM	34.8 µM	71.2 µM	> 100 µM	19.3 µM	41.4 µM	17.3 µM	65.5 µM
CC(=O)On1c(-c2ccccc2-c2nc3ccccc3n2OC(C)=O)nc2ccccc21	–	> 100 µM	–	71.1 µM	–	> 100 µM	–	46 µM	–	> 100 µM	–	–	–	> 100 µM	–	–	–	> 100 µM	–	> 100 µM
CN(C)C(=O)OC(Cn1cncn1)(Cn1cncn1)c1ccc(Cl)cc1Cl	–	–	–	> 100 µM	–	> 100 µM	–	> 100 µM	–	> 100 µM	–	> 100 µM	–	–	–	> 100 µM	–	> 100 µM	–	> 100 µM
CCn1c(-c2cc3ccccc3cc2O)nn(C(=O)c2c(Cl)cccc2Cl)c1=S	23.7 µM	> 50 µM	34.6 µM	> 50 µM	16.3 µM	> 50 µM	40.3 µM	> 50 µM	> 50 µM	> 50 µM	> 50 µM	> 50 µM	30.8 µM	> 50 µM	14.5 µM	> 50 µM	–	–	23.7 µM	> 50 µM
O=Cc1cccc2c1Oc1c(cccc1C(=O)O)S2	–	> 100 µM	–	68.1 µM	–	> 100 µM	–	55.6 µM	–	> 100 µM	–	> 100 µM	–	> 100 µM	–	–	–	> 100 µM	–	> 100 µM
COc1ccc(C2SCC(=O)N2NC(=O)c2ccc(NC(C)=O)cc2)cc1 (centres undefined)	–	> 100 µM	–	> 100 µM	–	> 100 µM	–	> 100 µM	–	> 100 µM	–	> 100 µM	–	–	–	> 100 µM	–	> 100 µM	–	> 100 µM
COc1cccc(/C=C/C(=O)c2ccc(Cl)cc2Cl)c1	8.72 µM	16.5 µM	0.773 µM	> 50 µM	13.9 µM	> 50 µM	8.85 µM	18.4 µM	11.1 µM	28.6 µM	15.1 µM	> 50 µM	–	–	9.44 µM	20.5 µM	–	–	10.9 µM	25.2 µM
Cn1c2ccc(Br)cc2c2c3c(c4c5ccccc5[nH]c4c21)C(=O)N(O)C3=O	0.0814 µM	0.445 µM	0.046 µM	0.312 µM	–	–	0.231 µM	0.73 µM	0.18 µM	0.498 µM	0.23 µM	0.658 µM	0.186 µM	0.386 µM	0.158 µM	0.329 µM	0.473 µM	1.57 µM	0.191 µM	0.452 µM
CCN(CC)CCCNC(=O)c1c2c(n3ccccc13)C(=O)c1ncccc1C2=O	–	–	0.604 µM	> 100 µM	0.935 µM	2.54 µM	0.123 µM	0.399 µM	0.224 µM	0.506 µM	0.248 µM	1.54 µM	0.0823 µM	0.425 µM	1.16 µM	3.13 µM	0.388 µM	1.65 µM	0.134 µM	0.938 µM
